According to paper PMC13429874, “ABHD2 activity is not required for the non-genomic action of progesterone on human sperm” (Human Reproduction (Oxford, England), 2026):
Entries after “also recorded” stand apart in the source; their conditions may differ.

Assays:
human sperm = assay: Sperm hyperactivation assay (CASA); type: cell-based; conditions: 10 µM compound, 30 min
Method: Sperm hyperactivation was assessed in human sperm purified by density gradient centrifugation. Semen samples (n = 7) were allowed to liquefy for 15–30 min at 37°C, and up to 2 ml of liquified semen was layered onto a two-step GM501 gradient system (45%/90%; Gynemed; Sierksdorf, Germany) pre-equilibrated at 37°C. Gradients were centrifuged for 20 min at 400 × g (no break). The 90% pellet was collected, washed in SpermActive medium (Gynemed; composition per manufacturer: NaCl, KCl, MgSO4.7H2O, KH2PO4, 1.77 mM CaCl2.2H2O, D(+)-glucose anhydrous, sodium pyruvate, sodium lactate, EDTA, alanyl-glutamine, essential and non-essential amino acids, 25.71 mM NaHCO3, 15 mM HEPES, 5 g/l human serum albumin, 10 mg/l gentamicin, and phenol red), and incubated for at least 2 h at 37°C, 5% CO2.
For compound testing, sperm suspensions with 7.5 × 10^6 sperm/ml in SpermActive were treated with either DMSO (vehicle) or 10 µM test compound. For basal and induced hyperactivation conditions, DMSO or progesterone (3 µM), respectively, was added. Samples were incubated for 30 min at 37°C, 5% CO2, before motility analysis.
Motility was analyzed using a CASA system (CEROSII^TM Animal Motility, software version 1.16; Hamilton Thorne, Beverly, MA, USA), mounted on an Axiolab 5 microscope (Zeiss, Germany), equipped with a TPi-SX Thermal Plate (Tokai Hit; Shizuoka-ken, Japan) and a JAI CM-040-GE CCD camera (JAI; Tokyo, Japan). Leja slides (20 µm chamber depth; Leja Products B.V., Nieuw-Vennep, The Netherlands) were pre-warmed to 37°C, cleaned with lens paper, and loaded by capillary action with 6 µl sperm suspension; capillary correction was set to 1.3. Sperm tracks were recorded at 37°C using a 10× negative-phase objective, acquiring 60 frames at 60 Hz with 4 ms exposure and gain set to 600. For each sample and condition, 300–500 motile sperm from at least 10 non-overlapping fields were analyzed. Hyperactive sperm were identified using the SORT function with the following Boolean argument: VCL > 150 µm/s and LIN < 50% and ALH > 7 µm. For each sample and condition, the percentage of hyperactive sperm was normalized to the percentage of motile sperm, and the mean of two technical duplicates was reported.
Statistical analysis was performed using GraphPad Prism 10 for Windows (version 10.6.1). Data normality was assessed using Shapiro–Wilk test. Differences between basal and induced hyperactivation were evaluated using a paired t-test, with effective pairing confirmed across all comparisons. P < 0.05 was considered statistically significant.

ABHD2^L33–E425 = biological target: T1, ABHD2^L33–E425 (Homo sapiens, UniProt P08910); assay: Differential scanning fluorimetry (DSF) with purified ABHD2^L33–E425; type: binding
T1 construct: expression for ABHD2 amino acids L33–E425, in which a predicted transmembrane domain (amino acids 1–32) is removed; His6-FLAG (N); made in house; host or cells: E. coli BL21(DE3)-R3-pRARE2
T1 sequence (P08910 33-425): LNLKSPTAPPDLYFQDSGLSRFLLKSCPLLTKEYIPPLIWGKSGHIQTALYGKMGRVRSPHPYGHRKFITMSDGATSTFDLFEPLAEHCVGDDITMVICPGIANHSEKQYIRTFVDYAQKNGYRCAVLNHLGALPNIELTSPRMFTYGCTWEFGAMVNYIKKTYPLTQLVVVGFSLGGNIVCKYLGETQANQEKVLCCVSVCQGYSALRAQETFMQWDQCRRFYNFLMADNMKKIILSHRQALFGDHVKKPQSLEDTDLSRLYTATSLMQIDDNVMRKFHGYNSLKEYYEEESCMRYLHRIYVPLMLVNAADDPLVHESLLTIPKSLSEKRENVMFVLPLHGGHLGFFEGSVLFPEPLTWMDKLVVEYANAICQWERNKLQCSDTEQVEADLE

[1] = biological target: T2, full-length human ABHD2 (ABHD2^FL) (Homo sapiens, UniProt P08910); assay: ABHD2^FL enzymatic activity assay with 7-HCA substrate; type: biochemical; conditions: Supplementary Table S2; read-out: IC50 measured in ABHD2^FL in the 7-HCA Assay
T2 construct: TEV site-eGFP-8xHis (C, cleaved yes); made in house; host or cells: SF9 insect cells (baculovirus)
T2 sequence (P08910 1-425): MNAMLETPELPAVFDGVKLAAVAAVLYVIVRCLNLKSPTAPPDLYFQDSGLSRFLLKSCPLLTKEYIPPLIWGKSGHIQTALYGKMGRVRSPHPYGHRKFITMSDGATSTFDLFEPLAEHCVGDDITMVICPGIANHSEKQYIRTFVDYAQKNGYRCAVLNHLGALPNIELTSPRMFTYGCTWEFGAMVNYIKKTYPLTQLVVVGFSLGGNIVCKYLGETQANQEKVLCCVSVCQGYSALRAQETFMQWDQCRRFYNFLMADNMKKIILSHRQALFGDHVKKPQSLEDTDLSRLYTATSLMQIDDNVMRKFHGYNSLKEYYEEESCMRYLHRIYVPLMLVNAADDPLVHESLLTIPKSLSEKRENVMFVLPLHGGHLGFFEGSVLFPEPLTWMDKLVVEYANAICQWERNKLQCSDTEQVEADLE

For CC1CCCN(C(=O)c2ccccc2C(=O)c2ccccc2)C1 (centres unmarked) [Compound 4], the “effect on progesterone-induced hyperactivation” value (human sperm; 3 µM progesterone) was “not affected”, the “effect on basal hyperactivation” value (human sperm) was “No statistically significant differences; also recorded: did not affect” and the “effect on melting temperature / thermal stability of ABHD2^L33-E425 (DSF), in words” value (ABHD2^L33–E425; 10 µM compound, 30 min pre-incubation) was “increased melting temperature”. For the same compound, the “ΔTm shift for ABHD2^L33-425 determined by DSF” value (ABHD2^L33–E425; purified protein) was 14 °C and the IC50 [1] was 1200 nM.
